In brackets after ≈: the same amount, converted by molar mass. Where two headings read alike, the source gives them in different places.

Here are results for 12 compounds from patent US10369138B2, “Monobactam organic compounds for the treatment of bacterial infections” (Novartis AG, priority 2014, dated 2019).

For one assay, the system named is E. coli strain 25922. The assay can be described thus: MIC by broth microdilution, E. coli strain 25922. The format is cell-based. How it is done: (§1) Bacterial isolates were cultivated from −70° C. frozen stocks by two consecutive overnight passages at 35° C. in ambient air on 5% blood agar (Remel, Lenexa, Kans.). Quality control and P. aeruginosa ATCC 27853) is from the American Type Culture Collection (ATCC; Rockville, Md.) and PAO1 was received from Dr. K. Poole.
Minimal Inhibitory Concentrations (MICs) were determined by the broth microdilution method in accordance with Clinical and Laboratories Institute (CLSI) guidelines. In brief, fresh overnight bacterial cultures were suspended in sterile saline, and adjusted to a 0.5 McFarland turbidity standard. Bacterial suspensions were then diluted in cation adjusted Mueller-Hinton Broth (MHB II; BBL) to yield a final inoculum of approximately 5×10^5 colony-forming units (CFU)/mL. A master plate of antibiotics was prepared at a concentration equivalent to hundred-fold the highest desired final concentration in 100% dimethyl sulfoxide (DMSO). The master antibiotic plate was then diluted by serial twofold dilution with a multichannel pipette. The resulting dilution series of compounds were diluted 1:10 with sterile water leading to a 10% DMSO final concentration. A volume of 10 μL of the drug dilution series was transferred to 96-well assay plates. Assay plates were inoculated with 90 μL of bacterial suspensions and incubated at 35-37° C. for 20 hrs. The assay plates were read using a microtiter plate reader (Molecular Devices) at 600 nm as well as by visual observation with a reading mirror. The lowest concentration of the compound that prevented visible growth was recorded as the MIC. Performance of the assay was monitored by testing aztreonam against laboratory quality control strains in accordance with guidelines of the CLSI.

For another assay, the system named is E. coli containing KPC-2. The assay can be described thus: MIC by broth microdilution, E. coli containing KPC-2 (Ec KPC2 Iso). Type of assay: cell-based. As to conditions: Escherichia coli, read-out: Ec KPC2 Iso (MIC), E. coli containing KPC-2 (carbapenemase from Klebsiella pneumoniae). Here is the method:
as §1
Strain NB27273 (BW25113 pspB::Km^r) was obtained from the Keio transposon insertion collection. The strain has the pspB gene replaced by a kanamycin resistance marker (BW25113 pspB::Km^r). This strain was cured of the transposon in pspB via FLP recombinase using published methodology. The resulting strain, BW25113 pspB, was used as a host for multicopy vectors expressing key β-lactamases. Multicopy plasmids directing constitutive expression of β-lactamases were established as follows: Synthetic, codon optimized genes encoding E. coli KPC2 and SHV12 β-lactamases were made by DNA2.0 (Palo Alto, Calif.). Each of the synthetic fragments were designed to contain NotI and NcoI restriction sites at their termini, allowing ligation into a NotI/NcoI digested pET28a(+) derivative for protein expression. […] The codon optimized nucleotide sequences and relevant primer recognition information is shown below:
The PCR products were then digested with XhoI and EcoRI and ligated into similarly digested plasmid pAH63-pstS(BlaP). Plasmid pAH63-pstS(BlaP) is a derivative of plasmid pAH63 (J Bacteriol: 183(21): 6384-6393) made by cloning the TEM-1 (bla) promoter and signal peptide encoding region from plasmid pBAD (J Bacteriol. 1995 July 177(14):4121-30) into plasmid pAH63. This fragment was PCR amplified from pBAD using primer pair E192 (ttca[…]) (SEQ ID NO:13) and E194 ([…]) (SEQ ID NO:14), digested with PstI and BamHI and inserted into similarly digested plasmid pAH63. Therefore, expression of β-lactamases from pAH63-pstS(BlaP) based constructs is constitutive and the signal sequence is provided to direct these proteins to the periplasm. Plasmid pAH63 based vectors are used for insertion into the genome in single copy, however, to provide higher expression levels to allow more sensitive detection of the susceptibility of compounds to the β-lactamases, the expression inserts contained in these vectors were moved to the replicative multicopy vector pBAD-Kan (J Bacteriol. 1995 July 177(14):4121-30). To accomplish this, the inserts encompassing the β-lactamase genes, with the associated TEM promoter and signal sequences, were PCR amplified from their corresponding vectors using primer E269 (ccg[…]) (SEQ ID NO:15) and E202 (aatc[…]) (SEQ ID NO:16) for the KPC2 construct and E204 (aatc[…]) (SEQ ID NO:17) for the SHV12 construct. These fragments were then digested with XbaI and EcoRI, and each was inserted into pBAD18-kan that had been digested with the same enzymes to generate a pair of multicopy vectors expressing KPC2 and SHV12 respectively. These vectors were transformed into BW25113 pspB to generate strains NB27273-CDY0033 (expressing KPC2) and NB27273-CDY0030 (expressing SHV12). The pBAD18-kan vector also contains the TEM promoter region and signal sequence, (but lacks any intact β-lactamase genes) and was transformed into BW25113 pspB using standard protocols to generate the control strain NB27273-CDY0026. Expression of the β-lactamases was confirmed by verifying decreased susceptibility to example test antibiotics that are known substrates of KPC2 or SHV12. Susceptibility Testing
Minimal Inhibitory Concentrations (MICs) were determined by the broth microdilution method in accordance with Clinical and Laboratories Institute (CLSI) guidelines. In brief, fresh overnight bacterial cultures were suspended in sterile saline, and adjusted to a 0.5 McFarland turbidity standard. Bacterial suspensions were then diluted in cation adjusted Mueller-Hinton Broth (MHB II; BBL) to yield a final inoculum of approximately 5×10^5 colony-forming units (CFU)/mL. […]

The mark [1] stands for this setting: Escherichia coli, 25922, E. coli strain 25922, read-out: Ec 25922 (MIC).

Regarding `NCCCNCc1cnn(C[C@@H]2[C@H](NC(=O)/C(=N\OC3(C(=O)O)CC3)c3nsc(N)n3)C(=O)N2S(=O)(=O)O)n1` [Example 94, (((Z)-(1-(5-amino-1,2,4-thiadiazol-3-yl)-2-(((2R,3S)-2-((4-(((3-aminopropyl)amino)methyl)-2H-1,2,3-triazol-2-yl)methyl)-4-oxo-1-sulfoazetidin-3-yl)amino)-2-oxoethylidene)amino)oxy)cyclopropanecarboxylic acid], the values for the MIC in the assay with E. coli strain 25922 (setting [1]) and with E. coli containing KPC-2 were 0.5 µg/mL (≈ 0.851 µM) and 1 µg/mL (≈ 1.7 µM), respectively.

In the case of `NCC1CN(C(=O)OCc2cnn(C[C@@H]3[C@H](NC(=O)/C(=N\OC4(C(=O)O)CC4)c4csc(N)n4)C(=O)N3S(=O)(=O)O)n2)C1` [Example 149, 1-(((Z)-(2-(((2R,3S)-2-((4-(((3-(aminomethyl)azetidine-1-carbonyl)oxy)methyl)-2H-1,2,3-triazol-2-yl)methyl)-4-oxo-1-sulfoazetidin-3-yl)amino)-1-(2-aminothiazol-4-yl)-2-oxoethylidene)amino)oxy)cyclopropanecarboxylic acid], the MIC with E. coli strain 25922 (setting [1]) and in the assay with E. coli containing KPC-2 was 0.5 µg/mL (≈ 0.778 µM) in each case.

Regarding `C[C@H](O/N=C(\C(=O)N[C@@H]1C(=O)N(S(=O)(=O)O)[C@@H]1Cn1cncn1)c1csc(N)n1)C(=O)O` [Example 29, (S)-2-(((Z)-(2-(((2R,3S)-2-((1H-1,2,4-triazol-1-yl)methyl)-4-oxo-1-sulfoazetidin-3-yl)amino)-1-(2-aminothiazol-4-yl)-2-oxoethylidene)amino)oxy)propanoic acid], the values for the MIC in the assay with E. coli strain 25922 (setting [1]) and in the assay with E. coli containing KPC-2 were 0.25 µg/mL (≈ 0.512 µM) and 1 µg/mL (≈ 2.05 µM), respectively.

As to `CC(C)(O/N=C(\C(=O)N[C@@H]1C(=O)N(S(=O)(=O)O)[C@@H]1CN1CC[C@H](NC(=N)N)C1=O)c1csc(N)n1)C(=O)O` [Example 80, 2-(((Z)-(1-(2-aminothiazol-4-yl)-2-(((2R,3S)-2-(((S)-3-guanidino-2-oxopyrrolidin-1-yl)methyl)-4-oxo-1-sulfoazetidin-3-yl)amino)-2-oxoethylidene)amino)oxy)-2-methylpropanoic acid], the MIC with E. coli strain 25922 (setting [1]) and in the assay with E. coli containing KPC-2 was 4 µg/mL (≈ 6.95 µM) in each case.

`CC(C)(O/N=C(\C(=O)N[C@@H]1C(=O)N(S(=O)(=O)O)[C@@H]1CN1C[C@@H](CNC(=N)N)OC1=O)c1csc(N)n1)C(=O)O` [Example 24, 2-(((Z)-(1-(2-aminothiazol-4-yl)-2-(((2R,3S)-2-(((R)-5-(guanidinomethyl)-2-oxooxazolidin-3-yl)methyl)-4-oxo-1-sulfoazetidin-3-yl)amino)-2-oxoethylidene)amino)oxy)-2-methylpropanoic acid]: the MIC was 0.25 µg/mL (≈ 0.423 µM) with E. coli strain 25922 (setting [1]) and 1 µg/mL (≈ 1.69 µM) in the assay on E. coli containing KPC-2.

`CC(C)(O/N=C(\C(=O)N[C@@H]1C(=O)N(S(=O)(=O)O)[C@@H]1CN1CCN=C1N)c1csc(N)n1)C(=O)O` [Example 39, 2-(((Z)-(2-(((2R,3S)-2-((2-amino-4,5-dihydro-1H-imidazol-1-yl)methyl)-4-oxo-1-sulfoazetidin-3-yl)amino)-1-(2-aminothiazol-4-yl)-2-oxoethylidene)amino)oxy)-2-methylpropanoic acid]: the MIC is 64 µg/mL (≈ 123 µM) with E. coli strain 25922 (setting [1]) and more than 64 µg/mL in the assay on E. coli containing KPC-2.

Regarding `CNCCCNCc1cnn(C[C@@H]2[C@H](NC(=O)/C(=N\OC3(C(=O)O)CC3)c3csc(N)n3)C(=O)N2S(=O)(=O)O)n1` [Example 116, 1-(((Z)-(1-(2-aminothiazol-4-yl)-2-(((2R,3S)-2-((4-(((3-(methylamino)propyl)amino)methyl)-2H-1,2,3-triazol-2-yl)methyl)-4-oxo-1-sulfoazetidin-3-yl)amino)-2-oxoethylidene)amino)oxy)cyclopropanecarboxylic acid], the MIC in the assay on E. coli strain 25922 (setting [1]) is 0.25 µg/mL (≈ 0.416 µM); in the assay with E. coli containing KPC-2 it was 0.125 µg/mL (≈ 0.208 µM).

`N=C(N)N(CCCN)Cc1cnn(C[C@@H]2[C@H](NC(=O)/C(=N\OC3(C(=O)O)CC3)c3csc(N)n3)C(=O)N2S(=O)(=O)O)n1` [Example 130, 1-(((Z)-(2-(((2R,3S)-2-((4-((1-(3-aminopropyl)guanidino)methyl)-2H-1,2,3-triazol-2-yl)methyl)-4-oxo-1-sulfoazetidin-3-yl)amino)-1-(2-aminothiazol-4-yl)-2-oxoethylidene)amino)oxy)cyclopropanecarboxylic acid]: the MIC in the assay on E. coli strain 25922 (setting [1]) worked out at 1 µg/mL (≈ 1.59 µM); in the assay with E. coli containing KPC-2, 2 µg/mL (≈ 3.18 µM).

Turning to `CC(C)(O/N=C(\C(=O)N[C@@H]1C(=O)N(S(=O)(=O)O)[C@@H]1Cn1cc(CNC(=N)N)nn1)c1csc(N)n1)C(=O)O` [Example 45, 2-(((Z)-(1-(2-aminothiazol-4-yl)-2-(((2R,3S)-2-((4-(guanidinomethyl)-1H-1,2,3-triazol-1-yl)methyl)-4-oxo-1-sulfoazetidin-3-yl)amino)-2-oxoethylidene)amino)oxy)-2-methylpropanoic acid], the MIC was found to be 0.5 µg/mL (≈ 0.872 µM) in the assay with E. coli strain 25922 (Escherichia coli, 25922, read-out: Ec 25922 (MIC)) and 0.5 µg/mL (≈ 0.872 µM) in the assay on E. coli containing KPC-2.

Turning to `N=C(NCCOCCN)NCc1cnn(C[C@@H]2[C@H](NC(=O)/C(=N\OC3(C(=O)O)CC3)c3csc(N)n3)C(=O)N2S(=O)(=O)O)n1` [Example 147, 1-(((Z)-(2-(((2R,3S)-2-((4-((3-(2-(2-aminoethoxy)ethyl)guanidino)methyl)-2H-1,2,3-triazol-2-yl)methyl)-4-oxo-1-sulfoazetidin-3-yl)amino)-1-(2-aminothiazol-4-yl)-2-oxoethylidene)amino)oxy)cyclopropanecarboxylic acid], the MIC with E. coli strain 25922 (setting [1]) and in the assay with E. coli containing KPC-2 was 0.5 µg/mL (≈ 0.759 µM) throughout.

With `CC(NCCCN)c1cnn(C[C@@H]2[C@H](NC(=O)/C(=N\OC3(C(=O)O)CC3)c3csc(N)n3)C(=O)N2S(=O)(=O)O)n1` (stereo partly drawn) [Example 151, 1-(((Z)-(2-(((2R,3S)-2-((4-(1-((3-aminopropyl)amino)ethyl)-2H-1,2,3-triazol-2-yl)methyl)-4-oxo-1-sulfoazetidin-3-yl)amino)-1-(2-aminothiazol-4-yl)-2-oxoethylidene)amino)oxy)cyclopropanecarboxylic acid], the MIC in the assay on E. coli strain 25922 (setting [1]) and with E. coli containing KPC-2 was 0.5 µg/mL (≈ 0.832 µM) in each case.

Consider `CC(C)(O/N=C(\C(=O)N[C@@H]1C(=O)N(S(=O)(=O)O)[C@@H]1Cn1nccn1)c1csc(N)n1)C(=O)O` [Example 54, 2-(((Z)-(2-(((2R,3S)-2-((2H-1,2,3-triazol-2-yl)methyl)-4-oxo-1-sulfoazetidin-3-yl)amino)-1-(2-aminothiazol-4-yl)-2-oxoethylidene)amino)oxy)-2-methylpropanoic acid], for which the MIC with E. coli strain 25922 (setting [1]) came to 2 µg/mL (≈ 3.98 µM); in the assay on E. coli containing KPC-2, 1 µg/mL (≈ 1.99 µM).
